Columns and labels:
[1] = target: T1, recombinant human ALK5 (TGF-βR1) protein (Homo sapiens, UniProt P36897); experiment: Biochemical ALK5 (TGF-βR1) assay to measure pKi (LANCE Ultra ULight kinase assay); details: apparent pKi, converted from pIC50 by Cheng-Prusoff
T1 construct: purchased Life Technologies PR9075A
T1 sequence (P36897 34-503): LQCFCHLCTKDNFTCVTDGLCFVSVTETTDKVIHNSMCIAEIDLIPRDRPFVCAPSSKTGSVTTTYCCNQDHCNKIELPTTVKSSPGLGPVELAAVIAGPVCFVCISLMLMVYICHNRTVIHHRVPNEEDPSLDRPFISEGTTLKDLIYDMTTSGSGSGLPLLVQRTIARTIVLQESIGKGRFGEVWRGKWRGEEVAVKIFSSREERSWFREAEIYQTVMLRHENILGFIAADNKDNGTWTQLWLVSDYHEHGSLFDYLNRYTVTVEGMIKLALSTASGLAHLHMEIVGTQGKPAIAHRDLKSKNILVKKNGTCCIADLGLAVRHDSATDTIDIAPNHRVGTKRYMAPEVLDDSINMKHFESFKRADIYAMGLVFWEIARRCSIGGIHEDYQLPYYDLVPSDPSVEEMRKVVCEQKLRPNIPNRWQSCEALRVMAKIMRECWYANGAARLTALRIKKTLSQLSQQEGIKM
Method in brief: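 Enzyme was preincubated with compound for 60 min at room temperature, then ATP (added from a 125 μM 5× stock with 2 mM DTT) started a 60 min reaction at 37 °C. EDTA plus Eu-anti-phospho-Topo2α (Thr1342) antibody stopped it; TR-FRET pIC50 values were converted to pKi by Cheng-Prusoff.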

[2] = test system: TGF-β-stimulated SMAD3 phosphorylation in BEAS-2B cells; experiment: Cellular ALK5 potency assay, inhibition of TGF-β stimulated pSMAD3 formation in BEAS-2B cells; assay type: cell-based; details: Homo sapiens, pSMAD3, TGF-β 10 ng/mL, read-out: BEAS2B pIC50 (converted)
Method in brief: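 Read-out is AlphaLISA detection of phospho-SMAD3 in lysates of BEAS-2B human lung epithelial cells. Cells are exposed to compound for 1 hour, then to 10 ng/mL TGF-β (final) for 30 minutes. Values are pIC50 from concentration–response curves.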

Compound | Ki [1] | IC50 [2]
Cc1cccc(-c2nccc(Nc3ccnc(Nc4ccc5c(c4)CC4(CCNC4)C5)n3)n2)n1 (stereo not drawn) [Compound 277, N2-(1,3-dihydrospiro[indene-2,3′-pyrrolidin]-5-yl)-N4-(2-(6-methylpyridin-2-yl)pyrimidin-4-yl)pyrimidine-2,4-diamine] | 0.0398 to 0.316 nM | 25.1 to 158 nM
Cc1cccc(-c2nccc(Nc3ccnc(Nc4ccc(CN5C[C@H]6C[C@@H]5CN6)cc4)n3)n2)n1 [Compound 279, N2-[4-[[(1R,4R)-2,5-diazabicyclo[2.2.1]heptan-2-yl]methyl]phenyl]-N4-[2-(6-methyl-2-pyridyl)pyrimidin-4-yl]pyrimidine-2,4-diamine] | 0.0398 to 0.316 nM | 25.1 to 158 nM
Cc1cccc(-c2nccc(Nc3ccnc(Nc4ccc(CC5CNC5)cc4)n3)n2)n1 [Compound 280, N2-[4-(azetidin-3-ylmethyl)phenyl]-N4-[2-(6-methyl-2-pyridyl)pyrimidin-4-yl]pyrimidine-2,4-diamine] | 0.0398 to 0.316 nM | 25.1 to 158 nM
Cc1cccc(-c2nccc(Nc3ccnc(Nc4ccc(N5CCOCC5)cn4)n3)n2)n1 [Compound 281, N4-[2-(6-methyl-2-pyridyl)pyrimidin-4-yl]-N2-(5-morpholino-2-pyridyl)pyrimidine-2,4-diamine] | 0.398 to 3.16 nM | 25.1 to 158 nM
Cc1cccc(-c2nccc(Nc3ccnc(Nc4cccc(NC(=O)C5CCN(C6CCN(C)CC6)CC5)c4)n3)n2)n1 [Compound 282, 1-(1-methyl-4-piperidyl)-N-[3-[[4-[[2-(6-methyl-2-pyridyl)pyrimidin-4-yl]amino]pyrimidin-2-yl]amino]phenyl]piperidine-4-carboxamide] | 0.0398 to 0.316 nM | 25.1 to 158 nM
Cc1cccc(-c2nccc(Nc3ccnc(Nc4ccc(CN5CCN[C@H](C(=O)O)C5)cc4)n3)n2)n1 [Compound 283, (2S)-4-[[4-[[4-[[2-(6-methyl-2-pyridyl)pyrimidin-4-yl]amino]pyrimidin-2-yl]amino]phenyl]methyl] piperazine-2-carboxylic acid] | 0.0398 to 0.316 nM | 200 to 1260 nM
Cc1cccc(-c2nccc(Nc3ccnc(Nc4ccc5[nH]ncc5c4)n3)n2)n1 [Compound 284, N2-(1H-indazol-5-yl)-N4-[2-(6-methyl-2-pyridyl)pyrimidin-4-yl]pyrimidine-2,4-diamine] | 0.398 to 3.16 nM | ≤ 20 nM
Cc1cccc(-c2nccc(Nc3ccnc(Nc4ccc(O)cc4)n3)n2)n1 [Compound 285, 4-[[4-[[2-(6-methyl-2-pyridyl)pyrimidin-4-yl]amino]pyrimidin-2-yl]amino]phenol] | 0.398 to 3.16 nM | 25.1 to 158 nM
Cc1cccc(-c2nccc(Nc3ccnc(Nc4cnn(CCCN)c4)n3)n2)n1 [Compound 286, N2-[1-(3-aminopropyl)pyrazol-4-yl]-N4-[2-(6-methyl-2-pyridyl)pyrimidin-4-yl]pyrimidine-2,4-diamine] | 0.0398 to 0.316 nM | 200 to 1260 nM
Cc1cccc(-c2nccc(Nc3ccnc(Nc4nc(CN5CCNCC5)cs4)n3)n2)n1 [Compound 287, N4-(2-(6-methylpyridin-2-yl)pyrimidin-4-yl)-N2-(4-(piperazin-1-ylmethyl)thiazol-2-yl)pyrimidine-2,4-diamine] | 0.398 to 3.16 nM | 25.1 to 158 nM
Cc1cccc(-c2nccc(Nc3ccnc(Nc4cccc(NC(=O)C5CCNCC5)c4)n3)n2)n1 [Compound 288, N-[3-[[4-[[2-(6-methyl-2-pyridyl)pyrimidin-4-yl]amino]pyrimidin-2-yl]amino]phenyl]piperidine-4-carboxamide] | 0.0398 to 0.316 nM | ≤ 20 nM
Cc1cccc(-c2nccc(Nc3ccnc(Nc4ccc(N5CCC(N)C5)cc4)n3)n2)n1 (stereo not drawn) [Compound 289, N2-[4-(3-aminopyrrolidin-1-yl)phenyl]-N4-[2-(6-methyl-2-pyridyl)pyrimidin-4-yl]pyrimidine-2,4-diamine] | 0.0398 to 0.316 nM | 25.1 to 158 nM
Cc1cccc(-c2nccc(Nc3ccnc(Nc4ccc(C(=O)N5CCNCC5)cc4)n3)n2)n1 [Compound 290, [4-[[4-[[2-(6-methyl-2-pyridyl)pyrimidin-4-yl]amino]pyrimidin-2-yl]amino]phenyl]-piperazin-1-yl-methanone] | 0.0398 to 0.316 nM | 25.1 to 158 nM
Cc1cccc(-c2nccc(Nc3ccnc(Nc4nc(C(=O)O[C@@H]5CCN(C)C5)cs4)n3)n2)n1 [Compound 291, [(3R)-1-methylpyrrolidin-3-yl] 2-[[4-[[2-(6-methyl-2-pyridyl)pyrimidin-4-yl]amino]pyrimidin-2-yl]amino]thiazole-4-carboxylate] | 0.398 to 3.16 nM | 25.1 to 158 nM
Cc1cccc(-c2nccc(Nc3ccnc(Nc4cccc(C(=O)N5CCN(C(C)C)CC5)c4)n3)n2)n1 [Compound 292, (4-isopropylpiperazin-1-yl)-[3-[[4-[[2-(6-methyl-2-pyridyl)pyrimidin-4-yl]amino]pyrimidin-2-yl]amino]phenyl]methanone] | 0.398 to 3.16 nM | 25.1 to 158 nM
CNC(=O)[C@H]1CN(Cc2ccc(Nc3nccc(Nc4ccnc(-c5cccc(C)n5)n4)n3)cc2)CCN1 [Compound 293, (2R)-N-methyl-4-[[4-[[4-[[2-(6-methyl-2-pyridyl)pyrimidin-4-yl]amino]pyrimidin-2-yl]amino]phenyl]methyl] piperazine-2-carboxamide] | 0.0398 to 0.316 nM | 25.1 to 158 nM
Cc1cccc(-c2nccc(Nc3ccnc(Nc4ccc(F)c(CO)c4)n3)n2)n1 [Compound 294, [2-fluoro-5-[[4-[[2-(6-methyl-2-pyridyl)pyrimidin-4-yl]amino]pyrimidin-2-yl]amino]phenyl]methanol] | 0.0398 to 0.316 nM | ≤ 20 nM
Cc1cccc(-c2nccc(Nc3ccnc(Nc4ccc(Cl)c(CO)c4)n3)n2)n1 [Compound 295, [2-chloro-5-[[4-[[2-(6-methyl-2-pyridyl)pyrimidin-4-yl]amino]pyrimidin-2-yl]amino]phenyl]methanol] | 0.0398 to 0.316 nM | 25.1 to 158 nM
Cc1cccc(-c2nccc(Nc3ccnc(Nc4ccc(NS(=O)(=O)C5CNC5)cc4)n3)n2)n1 [Compound 296, N-[4-[[4-[[2-(6-methyl-2-pyridyl)pyrimidin-4-yl]amino]pyrimidin-2-yl]amino]phenyl]azetidine-3-sulfonamide] | 0.398 to 3.16 nM | 200 to 1260 nM
Cc1cccc(-c2nccc(Nc3ccnc(Nc4ccc(CN5CCC(C(=O)O[C@H]6CCN(C)C6)CC5)cc4)n3)n2)n1 [Compound 297, [(3S)-1-methylpyrrolidin-3-yl] 1-[[4-[[4-[[2-(6-methyl-2-pyridyl)pyrimidin-4-yl]amino]pyrimidin-2-yl]amino]phenyl]methyl] piperidine-4-carboxylate] | 0.0398 to 0.316 nM | 200 to 1260 nM
Cc1cccc(-c2nccc(Nc3ccnc(Nc4cccc(NC(=O)N5CCNCC5)c4)n3)n2)n1 [Compound 298, N-[3-[[4-[[2-(6-methyl-2-pyridyl)pyrimidin-4-yl]amino]pyrimidin-2-yl]amino]phenyl]piperazine-1-carboxamide] | 0.0398 to 0.316 nM | 25.1 to 158 nM
Cc1cccc(-c2nccc(Nc3ccnc(Nc4cccc(NC(=O)C5(O)CNC5)c4)n3)n2)n1 [Compound 299, 3-hydroxy-N-[3-[[4-[[2-(6-methyl-2-pyridyl)pyrimidin-4-yl]amino]pyrimidin-2-yl]amino]phenyl]azetidine-3-carboxamide] | 0.0398 to 0.316 nM | 25.1 to 158 nM
Cc1cccc(-c2nccc(Nc3ccnc(Nc4ccc(N5CCOCC5)c(F)c4)n3)n2)n1 [Compound 300, N2-(3-fluoro-4-morpholino-phenyl)-N4-[2-(6-methyl-2-pyridyl)pyrimidin-4-yl]pyrimidine-2,4-diamine] | 0.0398 to 0.316 nM | 25.1 to 158 nM
Cc1cccc(-c2nccc(Nc3ccnc(Nc4ccc(CN5CCN(CCO)CC5)cc4)n3)n2)n1 [Compound 301, 2-[4-[[4-[[4-[[2-(6-methyl-2-pyridyl)pyrimidin-4-yl]amino]pyrimidin-2-yl]amino]phenyl]methyl]piperazin-1-yl]ethanol] | 0.0398 to 0.316 nM | 25.1 to 158 nM
Cc1cccc(-c2nccc(Nc3ccnc(Nc4ccc(N5CCC(CN)CC5)cc4)n3)n2)n1 [Compound 302, N2-[4-[4-(aminomethyl)-1-piperidyl]phenyl]-N4-[2-(6-methyl-2-pyridyl)pyrimidin-4-yl]pyrimidine-2,4-diamine] | 0.0398 to 0.316 nM | 25.1 to 158 nM
Cc1cccc(-c2nccc(Nc3ccnc(Nc4ccc(NS(=O)(=O)N5CCN(C)CC5)cc4)n3)n2)n1 [Compound 303, 4-methyl-N-[4-[[4-[[2-(6-methyl-2-pyridyl)pyrimidin-4-yl]amino]pyrimidin-2-yl]amino]phenyl]piperazine-1-sulfonamide] | 0.398 to 3.16 nM | 25.1 to 158 nM
CCOC(=O)Cc1ccc(Nc2nccc(Nc3ccnc(-c4cccc(C)n4)n3)n2)cc1 [Compound 304, ethyl 2-[4-[[4-[[2-(6-methyl-2-pyridyl)pyrimidin-4-yl]amino]pyrimidin-2-yl]amino]phenyl]acetate] | 0.398 to 3.16 nM | 25.1 to 158 nM
